Experimental data taken from US20100028447A1, “Intranasal, Buccal, And Sublingual Administration Of Metanicotine Analogs” (TARGACEPT, INC., priority 2007, published 2010).
Values joined by “and” are separate entries in the source; they are usually repeats but may differ in a detail not shown here. Identical values can stand only once. Like-named read-outs stand apart in the source and are kept apart here.

Experiment: Brain-to-plasma ratio of Compound C after oral gavage or intranasal administration (Example 5)
Type: in vivo, Sprague-Dawley rats
Settings: for concentration at 10 min / concentration at 30 min / concentration at 60 min / Kp at […] / Kp at 0.5 h / Kp at 1 h: Sprague-Dawley
Protocol: Three treatment groups of nine rats each were used (see Study Design, Table 9). […] The animals were housed up to three per cage and identified by cage labels. A single room was used for this study. […] Food was withheld from the animals for a minimum of 12 hours before the study and during the study, and was returned at 4 hours post-dose. Water was supplied ad libitum during the study.
All dosing solutions were prepared in isotonic PBS (phosphate buffered saline) buffer at pH 7.4. […] For intranasal dosing, the animals were anesthetized with CO2 prior to dosing, and the solution was administered in a 25 μL droplet from a pipette.
For each treatment group, brain and plasma samples were collected at 10, 30 and 60 minutes post-dose. Blood samples were placed in heparinized tubles and spun at 13,000 rpm for 5 minutes. The plasma was placed in polyethylene tubes and frozen (−60 to −80° C.). Brain samples were also placed in chilled tubes and frozen (−60 to −80° C.). Samples remained chilled during subsequent processing.
Brain samples were thawed and weighed. […] After homogenation, the volume of each sample was recorded and the samples were frozen at −80° C. until analysis.
Plastic tubes were used for all steps. Standards were prepared at concentrations of 1000, 500, 250, 100, 50, 10, 5, and 1 ng/mL by serial dilution. Quality control samples were also prepared at 500, 100, and 5 ng/mL. […] Brain standards and quality control samples were treated identically to the test compound samples.
(§1) Brain samples (200 μL) were loaded onto a 96 well plate and then transferred to 400 μL of acetonitrile containing internal standard (100 ng/mL Pindolol) in a Sirocco Protein Precipitation Plate (Waters Corporation). The resulting suspensions were mixed, then filtered into a clean 96-well collection plate using a vacuum and transferred (100 μL) to plastic HPLC vials for analysis.
as §1, with “(50” for “(200”, “150” for “400”

[1] = 1 mg/kg intranasal dose, 10 min
[2] = 1 mg/kg intranasal dose, 30 min
[3] = 1 mg/kg intranasal dose, 60 min
[4] = 5 mg/kg intranasal dose, 10 min
[5] = 5 mg/kg intranasal dose, 60 min

Brain-to-Plasma Ratio [1]: 1.55 and 1.68 | Mean Ratio (brain-to-plasma) [1]: 1.97 | Brain-to-Plasma Ratio [2]: 1.69 and 2.36 | Mean Ratio (brain-to-plasma) [2]: 2.27 | Plasma Conc. [2]: 118 ng/mL and 86.8 ng/mL | Brain-to-Plasma Ratio [3]: 1.86 and 2.57 | Mean Ratio (brain-to-plasma) [3]: 2.12 | Plasma Conc. [3]: 66 ng/mL and 37.8 ng/mL | Brain-to-Plasma Ratio [4]: 0.99 | Plasma Conc. [4]: 1570 ng/mL and 1700 ng/mL | Brain-to-Plasma Ratio (5 mg/kg intranasal dose, 30 min): 3.58 and 2.11 | Brain-to-Plasma Ratio [5]: 3.26 and 1.95 | Mean Ratio (brain-to-plasma) [5]: 2.41 | Plasma Conc. [5]: 175 ng/mL and 119 ng/mL | Brain-to-Plasma Ratio (5 mg/kg oral dose, 30 min): 2.65 and 1.67 | Mean Ratio (brain-to-plasma) (5 mg/kg oral dose, 30 min): 2.21 | Brain-to-Plasma Ratio (5 mg/kg oral dose, 60 min): 3.95 | Mean Ratio (brain-to-plasma) (5 mg/kg oral dose, 60 min): 3.55 | 5 mg/kg IN/5 mg/kg PO, Brain (30 min): 1.0 | 5 mg/kg IN/5 mg/kg PO, Plasma (30 min): 0.7 | 5 mg/kg IN/5 mg/kg PO, Brain (60 min): 0.7 | 5 mg/kg IN/5 mg/kg PO, Plasma (60 min): 1.0 | concentration at 10 min (rat, brain homogenate, oral, 5 mg/kg, 5 mg/kg oral dose, 10 min, read-out: Brain Conc.): 45.4 ng/mL | concentration at 30 min (rat, brain homogenate, oral, 5 mg/kg, 5 mg/kg oral dose, 30 min, read-out: Brain Conc.): 205 ng/mL | concentration at 10 min (rat, brain homogenate, other: intranasal, 1 mg/kg, 1 mg/kg intranasal dose, 10 min, read-out: Brain Conc.): 47.6 ng/mL | concentration at 30 min (rat, brain homogenate, other: intranasal, 1 mg/kg, 1 mg/kg intranasal dose, 30 min, read-out: Brain Conc.): 43.7 ng/mL | concentration at 60 min (rat, brain homogenate, other: intranasal, 1 mg/kg, 1 mg/kg intranasal dose, 60 min, read-out: Brain Conc.): 17.7 ng/mL | concentration at 10 min (rat, brain homogenate, other: intranasal, 5 mg/kg, 5 mg/kg intranasal dose, 10 min, read-out: Brain Conc.): 269 ng/mL | Kp at […] (rat, brain, inhaled or intranasal, 1 mg/kg, 1 mg/kg intranasal dose, 10 min, read-out: Mean Ratio (brain-to-plasma)): 2 | Kp at 0.5 h (rat, brain, inhaled or intranasal, 1 mg/kg, 1 mg/kg intranasal dose, 30 min, read-out: Mean Ratio (brain-to-plasma)): 2.8 | Kp at 1 h (rat, brain, inhaled or intranasal, 1 mg/kg, 1 mg/kg intranasal dose, 60 min, read-out: Mean Ratio (brain-to-plasma)): 2.4 | Kp at […] (rat, brain, inhaled or intranasal, 5 mg/kg, 5 mg/kg intranasal dose, 10 min, read-out: Mean Ratio (brain-to-plasma)): 1.2 | Kp at 0.5 h (rat, brain, inhaled or intranasal, 5 mg/kg, 5 mg/kg intranasal dose, 30 min, read-out: Mean Ratio (brain-to-plasma)): 2.8 | Kp at 1 h (rat, brain, inhaled or intranasal, 5 mg/kg, 5 mg/kg intranasal dose, 60 min, read-out: Mean Ratio (brain-to-plasma)): 2.4 | concentration at 10 min (rat, brain, oral, 5 mg/kg, 5 mg/kg oral dose, 10 min, read-out: Brain Conc.): 227 ng/g | concentration at 30 min (rat, brain, oral, 5 mg/kg, 5 mg/kg oral dose, 30 min, read-out: Brain Conc.): 1020 ng/g | concentration at 10 min (rat, brain, other: intranasal, 1 mg/kg, 1 mg/kg intranasal dose, 10 min, read-out: Brain Conc.): 238 ng/g | concentration at 30 min (rat, brain, other: intranasal, 1 mg/kg, 1 mg/kg intranasal dose, 30 min, read-out: Brain Conc.): 219 ng/g | concentration at 60 min (rat, brain, other: intranasal, 1 mg/kg, 1 mg/kg intranasal dose, 60 min, read-out: Brain Conc.): 89 ng/g | concentration at 10 min (rat, brain, other: intranasal, 1 mg/kg, intranasal 1 mg/kg, 10 minutes, read-out: Average brain levels): 136 ng/g | concentration at 30 min (rat, brain, other: intranasal, 1 mg/kg, intranasal 1 mg/kg, 30 minutes, read-out: Average brain levels): 95 ng/g | concentration at 60 min (rat, brain, other: intranasal, 1 mg/kg, intranasal 1 mg/kg, 60 minutes, read-out: Average brain levels): 50 ng/g | concentration at 10 min (rat, brain, other: intranasal, 5 mg/kg, 5 mg/kg intranasal dose, 10 min, read-out: Brain Conc.): 1340 ng/g | concentration at 10 min (rat, brain, other: intranasal, 5 mg/kg, intranasal 5 mg/kg, 10 minutes, read-out: Average brain levels): 1750 ng/g | concentration at 30 min (rat, brain, other: intranasal, 5 mg/kg, intranasal 5 mg/kg, 30 minutes, read-out: Average brain levels): 1160 ng/g | concentration at 60 min (rat, brain, other: intranasal, 5 mg/kg, intranasal 5 mg/kg, 60 minutes, read-out: Average brain levels): 382 ng/g | concentration at 10 min (rat, brain, po, 5 mg/kg, oral gavage 5 mg/kg, 10 minutes, read-out: Average brain levels): 225 ng/g | concentration at 30 min (rat, brain, po, 5 mg/kg, oral gavage 5 mg/kg, 30 minutes, read-out: Average brain levels): 1170 ng/g | concentration at 60 min (rat, brain, po, 5 mg/kg, oral gavage 5 mg/kg, 60 minutes, read-out: Average brain levels): 571 ng/g | Kp at […] (rat, brain/plasma, inhaled or intranasal, 1 mg/kg, 1 mg/kg intranasal dose, 10 min, read-out: Brain-to-Plasma Ratio): 2.7 | Kp at 0.5 h (rat, brain/plasma, inhaled or intranasal, 1 mg/kg, 1 mg/kg intranasal dose, 30 min, read-out: Brain-to-Plasma Ratio): 2.78 | Kp at 1 h (rat, brain/plasma, inhaled or intranasal, 1 mg/kg, 1 mg/kg intranasal dose, 60 min, read-out: Brain-to-Plasma Ratio): 1.92 | Kp at […] (rat, brain/plasma, inhaled or intranasal, 5 mg/kg, 5 mg/kg intranasal dose, 10 min, read-out: Brain-to-Plasma Ratio): 1.42 | Kp at 0.5 h (rat, brain/plasma, inhaled or intranasal, 5 mg/kg, 5 mg/kg intranasal dose, 30 min, read-out: Brain-to-Plasma Ratio): 2.63 | Kp at 1 h (rat, brain/plasma, inhaled or intranasal, 5 mg/kg, 5 mg/kg intranasal dose, 60 min, read-out: Brain-to-Plasma Ratio): 2.03 | Kp at […] (rat, brain/plasma, po, 5 mg/kg, 5 mg/kg oral dose, 10 min, read-out: Mean Ratio (brain-to-plasma)): 0.8 | Kp at 0.5 h (rat, brain/plasma, po, 5 mg/kg, 5 mg/kg oral dose, 30 min, read-out: Brain-to-Plasma Ratio): 2.31 | Kp at 0.5 h (rat, brain/plasma, po, 5 mg/kg, 5 mg/kg oral dose, 30 min, read-out: Mean Ratio (brain-to-plasma)): 2.2 | Kp at 1 h (rat, brain/plasma, po, 5 mg/kg, 5 mg/kg oral dose, 60 min, read-out: Brain-to-Plasma Ratio): 3.89 | Kp at 1 h (rat, brain/plasma, po, 5 mg/kg, 5 mg/kg oral dose, 60 min, read-out: Mean Ratio (brain-to-plasma)): 3.5 | Kp at […] (rat, brain/plasma, po, 5 mg/kg, 10 min, read-out: 5 mg/kg IN/5 mg/kg PO, Ratio (brain to plasma)): 1.5 | Kp at 0.5 h (rat, brain/plasma, po, 5 mg/kg, 30 min, read-out: 5 mg/kg IN/5 mg/kg PO, Ratio (brain to plasma)): 1.3 | Kp at 1 h (rat, brain/plasma, po, 5 mg/kg, 60 min, read-out: 5 mg/kg IN/5 mg/kg PO, Ratio (brain to plasma)): 0.7 | concentration at 30 min (rat, plasma, other: intranasal, 1 mg/kg, 1 mg/kg intranasal dose, 30 min, read-out: Plasma Conc.): 78.7 ng/mL | concentration at 60 min (rat, plasma, other: intranasal, 1 mg/kg, 1 mg/kg intranasal dose, 60 min, read-out: Plasma Conc.): 46 ng/mL | concentration at 10 min (rat, plasma, other: intranasal, 1 mg/kg, intranasal 1 mg/kg, 10 minutes, read-out: Average plasma levels): 250 ng/mL | concentration at 30 min (rat, plasma, other: intranasal, 1 mg/kg, intranasal 1 mg/kg, 30 minutes, read-out: Average plasma levels): 208 ng/mL | concentration at 60 min (rat, plasma, other: intranasal, 1 mg/kg, intranasal 1 mg/kg, 60 minutes, read-out: Average plasma levels): 103 ng/mL | concentration at 10 min (rat, plasma, other: intranasal, 5 mg/kg, 5 mg/kg intranasal dose, 10 min, read-out: Plasma Conc.): 1120 ng/mL | concentration at 60 min (rat, plasma, other: intranasal, 5 mg/kg, 5 mg/kg intranasal dose, 60 min, read-out: Plasma Conc.): 170 ng/mL | concentration at 10 min (rat, plasma, other: intranasal, 5 mg/kg, intranasal 5 mg/kg, 10 minutes, read-out: Average plasma levels): 1460 ng/mL | concentration at 30 min (rat, plasma, other: intranasal, 5 mg/kg, intranasal 5 mg/kg, 30 minutes, read-out: Average plasma levels): 421 ng/mL | concentration at 60 min (rat, plasma, other: intranasal, 5 mg/kg, intranasal 5 mg/kg, 60 minutes, read-out: Average plasma levels): 155 ng/mL | concentration at 10 min (rat, plasma, po, 5 mg/kg, oral gavage 5 mg/kg, 10 minutes, read-out: Average plasma levels): 312 ng/mL | concentration at 30 min (rat, plasma, po, 5 mg/kg, oral gavage 5 mg/kg, 30 minutes, read-out: Average plasma levels): 578 ng/mL | concentration at 60 min (rat, plasma, po, 5 mg/kg, oral gavage 5 mg/kg, 60 minutes, read-out: Average plasma levels): 155 ng/mL | Intranasal absorption into the brain and bloodstream compared with oral administration (rat, in vivo, po): much faster
Compound: CN[C@@H](C)C/C=C/c1cncc(OC(C)C)c1 [Compound C, (2S)-(4E)-N-methyl-5-(3-(5-isopropoxypyridin)yl)-4-penten-2-amine]
